This is an account of results in US8193203B2, “Bicyclic compounds having activity at the CXCR4 receptor” (Allergan, Inc., priority 2008, dated 2012).

The target in the assay is T1, human CXCR4 receptor (Homo sapiens, UniProt P61073).
T1 construct: expressed in transfected cells
The assay can be described thus: Measurement of intracellular Ca+2 responses (FLIPR), antagonism of the SDF-1α response. The class given is cell-based. As to conditions: for IC50: HEK-Gqi5 cells stably expressing human CXCR4, Fluo-4 FLIPR, antagonism of SDF-1α 1.9 nM (EC65); for CXCR4 (% Inh): percent antagonism of SDF-1α 1.9 nM (EC65) response, HEK-Gqi5 human CXCR4 cells, value in brackets. On the procedure:
Measurement of Intracellular Ca^+2 Responses for CXCR4 Compounds
HEK-Gqi5 cells stably expressing the human CXCR4 receptor were utilized for these studies. The growth media for the CXCR4 receptor expressing cell line was DMEM high glucose medium supplemented with 10% fetal bovine serum (FBS), 1% antibiotic-antimycotic, 50 ug/ml hygromycin B, and 400 μg/ml geneticin. Ten thousand cells per well were plated into 384-well poly-D-lysine coated plates one day prior to use. On the day of the experiment, the cells were washed twice with Hank's Balanced Salt Solution supplemented with 20 mM hepes (HBSS/hepes buffer). The cells were then dye loaded with 2 uM Fluo-4 diluted in the HBSS/Hepes buffer and incubated at 37° C. for 40 minutes. Extracellular dye was removed by washing the cell plates four times prior to placing the plates in the FLIPR (Fluorometric Imaging Plate Reader, Molecular Devices). Ligands were diluted in HBSS/Hepes buffer and prepared in 384-well microplates. The positive control, stromal-cell derived factor-1 (SDF-1α), was diluted in HBSS/Hepes buffer with 4 mg/ml fatty acid free bovine serum albumin. Two drug additions were made by the FLIPR. The first drug addition was the test drug in concentrations ranging from 2.44 nM to 40,000 nM. After this addition, fluorescent measurements were taken. Any calcium release in response to this drug addition represents agonist activity of the compounds. The second drug addition was SDF-1α at a final concentration of 1.9 nM (EC65). Fluorescence measurements were also taken after this second drug addition and were used to determine the ability of the test compounds to antagonize the SDF-1α response. Results were expressed as EC50 and efficacy values, as well as IC50 and percent antagonism values. As controls, SDF-1α (CXCR4 agonist) and AMD3100 (CXCR4 antagonist) dose-response curves were also determined in each study.

The IC50 is the concentration that inhibits the measured activity by half. A low value points to higher potency.

T1 sequence (P61073 whole entry): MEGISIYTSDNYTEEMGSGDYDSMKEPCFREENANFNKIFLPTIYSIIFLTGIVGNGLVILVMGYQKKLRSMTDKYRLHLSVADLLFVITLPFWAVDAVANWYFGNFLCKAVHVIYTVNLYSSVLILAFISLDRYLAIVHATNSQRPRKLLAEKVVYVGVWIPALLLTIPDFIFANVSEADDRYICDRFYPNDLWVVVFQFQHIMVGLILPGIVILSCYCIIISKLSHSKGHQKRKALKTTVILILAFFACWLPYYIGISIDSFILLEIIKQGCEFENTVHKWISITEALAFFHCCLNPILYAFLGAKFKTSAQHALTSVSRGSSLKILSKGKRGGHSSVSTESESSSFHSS

`CCN(CC)CCCNc1nc(NC2CCN(Cc3ccccc3-n3cccc3)CC2)c2ccccc2n1` [Compound 132, N4-(1-(2-(1H-Pyrrol-1-yl)benzyl)piperidin-4-yl)-N2-(3-(diethylamino)propyl)quinazoline-2,4-diamine]: the “CXCR4 (% Inh)” value amounted to 84%. Under “values given in μM”, this compound showed an IC50 of 1.4 µM.
For `CCOP(=O)(CCCNc1nc(NC2CCN(Cc3c(OC)cccc3N(C)C)CC2)c2ccccc2n1)OCC` [Compound 81, Diethyl 3-(4-(1-(2-(Dimethylamino)-6-methoxybenzyl)piperidin-4-ylamino)quinazolin-2-ylamino)propylphosphonate], the “CXCR4 (% Inh)” value was 99%. In addition, the IC50 (values given in μM) was determined as 1.6 µM.
On to `CCN(CC)CCCCCNc1nc(NC2CCN(Cc3c(OC)cccc3N(C)C)CC2)c2ccccc2n1` [Compound 67, N2-(5-(Diethylamino)pentyl)-N4-(1-(2-(dimethylamino)-6-methoxybenzyl)piperidin-4-yl)quinazoline-2,4-diamine], for which the “CXCR4 (% Inh)” value came out at 88%. For the same compound, for the setting “values given in μM”, 1.9 µM corresponded to half-maximal inhibition (IC50).
As for `COc1cccc(N(C)C)c1CN1CCC(Nc2nc(N3CCCN(C)CC3)nc3ccccc23)CC1` [Compound 217, N-(1-(2-(Dimethylamino)-6-methoxybenzyl)piperidin-4-yl)-2-(4-methyl-1,4-diazepan-1-yl)quinazolin-4-amine], the “CXCR4 (% Inh)” value is listed as 100%. The same compound yielded an IC50 (values given in μM) of 2.1 µM.
`CCN1CCC(CNc2nc(NC3CCN(Cc4c(OC)cccc4N(C)C)CC3)c3ccccc3n2)C1` (centres unmarked) [Compound 107, N4-(1-(2-(Dimethylamino)-6-methoxybenzyl)piperidin-4-yl)-N2-((1-ethylpyrrolidin-3-yl)methyl)quinazoline-2,4-diamine]: the “CXCR4 (% Inh)” value worked out at 96%. Where the note is “values in nM”, this compound returned an IC50 of 0.653 µM.
Taken in the same sequence, the figures for `COc1cccc(N(C)C)c1CN1CCC(Nc2nc(NCC[C@H]3CCCN3)nc3ccccc23)CC1` [Compound 117, (R)—N-4-(1-(2-(Dimethylamino)-6-methoxybenzyl)piperidin-4-yl)-N2-(2-(pyrrolidin-2-yl)ethyl)quinazoline-2,4-diamine] were 95% and 0.319 µM.
For `COc1cccc(N(C)C)c1CN1CCC(Nc2nc(NCCC3CCCN3C)nc3ccccc23)CC1` (centres unmarked) [Compound 97, N4-(1-(2-(Dimethylamino)-6-methoxybenzyl)piperidin-4-yl)-N2-(2-(1-methylpyrrolidin-2-yl)ethyl)quinazoline-2,4-diamine], the “CXCR4 (% Inh)” value is listed as 100%. Where the note is “values in nM”, this compound registered an IC50 of 0.14 µM.
The matching figures for `CCN(CC)CCNc1nc(NC2CCN(Cc3ccccc3N(C)C)CC2)c2cc(OC)c(OC)cc2n1` [Compound 32]: 90% and 0.343 µM.
For `CCN(CC)C(=O)CCNc1nc(NC2CCN(Cc3ccccc3N(C)C)CC2)c2cc(OC)c(OC)cc2n1` [Compound 31], the “CXCR4 (% Inh)” value is recorded as 92%. The compound further yielded a half-maximal inhibitory concentration (IC50) (values given in μM) of 2.4 µM.
With `COc1cc2nc(NCCCN(C)C)nc(NC3CCN(Cc4ccccc4N(C)C(C)C)CC3)c2cc1OC` [Compound 224, N2-(3-(Dimethylamino)propyl)-N4-(1-(2-(isopropyl(methyl)amino)benzyl)piperidin-4-yl)-6,7-dimethoxyquinazoline-2,4-diamine], the “CXCR4 (% Inh)” value came to 92%. Where the note is “values in nM”, the midpoint of inhibition, the IC50, lay at 0.695 µM.
`COc1cccc(N(C)C)c1CN1CCC(Nc2nc(N3CC3)nc3ccccc23)CC1` [Compound 92, 2-(Aziridin-1-yl)-N-(1-(2-(dimethylamino)-6-methoxybenzyl)piperidin-4-yl)quinazolin-4-amine]: the “CXCR4 (% Inh)” value worked out at 75%. Also, the IC50 (values given in μM) was 2.1 µM.
Taken in the same sequence, the figures for `COc1cccc(N(C)C)c1CN1CCC(Nc2nc(NCC3CCN(C(=O)OC(C)(C)C)C3)nc3ccccc23)CC1` (centres unmarked) [Compound 106, tert-Butyl 3-((4-(1-(2-(Dimethylamino)-6-methoxybenzyl)piperidin-4-ylamino)quinazolin-2-ylamino)methyl)pyrrolidine-1-carboxylate] were 73% and 2.3 µM.
Taken in the same sequence, the figures for `COc1cccc(N(C)C)c1CN1CCC(Nc2nc(NCCNC(=O)NC(C)C)nc3ccccc23)CC1` [Compound 126, 1-(2-(4-(1-(2-(Dimethylamino)-6-methoxybenzyl)piperidin-4-ylamino)quinazolin-2-ylamino)ethyl)-3-isopropylurea] were 96% and 2.9 µM.
Turning to `COc1cccc(N(C)C)c1CN1CCC(Nc2nc(NCCNC(C)=O)nc3ccccc23)CC1` [Compound 118, N-(2-(4-(1-(2-(Dimethylamino)-6-methoxybenzyl)piperidin-4-ylamino)quinazolin-2-ylamino)ethyl)acetamide], the “CXCR4 (% Inh)” value is recorded as 97%. For the same compound, the IC50 (values in nM) was determined as 0.762 µM.
Taken in the same sequence, the figures for `CCN(CC)CCCNc1nc(NC2CCN(Cc3ccccc3N(C)C)CC2)c2cc(OC)c(OC)cc2n1` [Compound 30, N2-(3-(Diethylamino)propyl)-N4-(1-(2-(dimethylamino)benzyl)piperidin-4-yl)-6,7-dimethoxyquinazoline-2,4-diamine] were 100% and 0.27 µM.
As to `COc1cc2nc(NCCCN(C)C)nc(NC3CCN(Cc4c(OCCN(C)C)cccc4N(C)C)CC3)c2cc1OC` [Compound 76, N4-(1-(2-(Dimethylamino)-6-(2-(dimethylamino)ethoxy)benzyl)piperidin-4-yl)-N-2-(3-(dimethylamino)propyl)-6,7-dimethoxyquinazoline-2,4-diamine], the “CXCR4 (% Inh)” value was determined as 94%. Further, the IC50 (values in nM) worked out at 0.019 µM.
The matching figures for `COc1cccc(N(C)C)c1CN1CCC(Nc2nc(NCCc3c[nH]cn3)nc3ccccc23)CC1` [Compound 119, N2-(2-(1H-Imidazol-4-yl)ethyl)-N4-(1-(2-(dimethylamino)-6-methoxybenzyl)piperidin-4-yl)quinazoline-2,4-diamine]: 96% and 0.387 µM.
The matching figures for `COc1cc2nc(NCC(O)CN)nc(NC3CCN(Cc4c(OCCN(C)C)cccc4N(C)C)CC3)c2cc1OC` (centres unmarked) [Compound 196, 1-Amino-3-({4-[(1-{2-(dimethylamino)-6-[2-(dimethylamino)ethoxy]benzyl}piperidin-4-yl)amino]-6,7-dimethoxyquinazolin-2-yl}amino)propan-2-ol]: 95% and 0.038 µM.
The matching figures for `CCN(CC)CCNc1nc(NC2CCN(Cc3c(OC)cccc3N(C)C)CC2)c2cc(OC)c(OC)cc2n1` [Compound 41, N2-(2-(Diethylamino)ethyl)-N4-(1-(2-(dimethylamino)-6-methoxybenzyl)piperidin-4-yl)-6,7-dimethoxyquinazoline-2,4-diamine]: 100% and 0.36 µM.
Take `COc1cccc(N(C)C)c1CN1CCC(Nc2nc(NCC[C@H]3CCCN3C(=O)OC(C)(C)C)nc3ccccc23)CC1` [Compound 116, (R)-tert-Butyl 2-(2-(4-(1-(2-(Dimethylamino)-6-methoxybenzyl)piperidin-4-ylamino)quinazolin-2-ylamino)ethyl)pyrrolidine-1-carboxylate]: the “CXCR4 (% Inh)” value came out at 83%. Further, the midpoint of inhibition (values given in μM), the IC50, lay at 2.2 µM.
Taken in the same sequence, the figures for `COc1cccc(N(C)C)c1CN1CCC(Nc2nc(N3CCN(C)CC3)nc3ccccc23)CC1` [Compound 218, N-(1-(2-(Dimethylamino)-6-methoxybenzyl)piperidin-4-yl)-2-(4-methyl-piperazin-1-yl)quinazolin-4-amine] were 84% and 1.2 µM.
As for `CCN(CC)CCCCNc1nc(NC2CCN(Cc3c(OC)cccc3N(C)C)CC2)c2ccccc2n1` [Compound 66, N2-(4-(Diethylamino)butyl)-N4-(1-(2-(dimethylamino)-6-methoxybenzyl)piperidin-4-yl)quinazoline-2,4-diamine], the “CXCR4 (% Inh)” value is on record as 93%. This compound displayed an IC50 (values in nM) of 0.2 µM.
The matching figures for `COc1cc2nc(NCc3cnco3)nc(NC3CCN(Cc4c(OCCN(C)C)cccc4N(C)C)CC3)c2cc1OC` [Compound 212, N˜4˜-(1-{2-(Dimethylamino)-6-[2-(dimethylamino)ethoxy]benzyl}piperidin-4-yl)-6,7-dimethoxy-N˜2˜-(1,3-oxazol-5-ylmethyl)quinazoline-2,4-diamine]: 98% and 0.058 µM.
The matching figures for `CNCCCCNc1nc(NC2CCN(Cc3c(OC)cccc3N(C)C)CC2)c2ccccc2n1` [Compound 102, N4-(1-(2-(Dimethylamino)-6-methoxybenzyl)piperidin-4-yl)-N2-(4-(methylamino)butyl)quinazoline-2,4-diamine]: 97% and 0.215 µM.
The matching figures for `COc1cc2nc(NCCCN(C)C)nc(NC3CCN(Cc4c(OC)cccc4N(C)C)CC3)c2cc1OC` [Compound 78]: 100% and 0.283 µM.
